Test results from patent US20180368410A1, “MICROBIOCIDAL OXADIAZOLE DERIVATIVES” (SYNGENTA PARTICIPATIONS AG, priority 2015, published 2018).

What was measured:
[1] = system: Puccinia recondita f. Sp. Tritici; experiment: Puccinia recondita f. sp. tritici / wheat / leaf disc preventative (brown rust); format: in vivo, Puccinia recondita f. sp. tritici on wheat cv. Kanzler; conditions: foliar, 200 ppm in the applied formulation, inoculated 1 day after application, assessed 7 to 9 days after application, vs untreated control leaf disks, read-out: disease control
Outline: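 Wheat cv. Kanzler leaf segments on agar were sprayed with compound (DMSO stock diluted with 0.025% Tween20) 1 day before inoculation with spores. Segments were held at 19 °C, 75% rh, 12 h light/dark. Percent disease control versus untreated was scored 7–9 days after application.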

[2] = system: Puccinia recondita f. Sp. Triticil; experiment: Puccinia recondita f. sp. tritici / wheat / leaf disc curative (brown rust); format: in vivo, Puccinia recondita f. sp. tritici on wheat cv. Kanzler; conditions: foliar, 200 ppm in the applied formulation, applied 1 day after inoculation, assessed 6 to 8 days after application, vs untreated control leaf disks, read-out: disease control
Outline: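 Compounds, prepared from DMSO solutions of at most 10 mg/ml and diluted just before spraying, are applied curatively to inoculated Kanzler wheat leaf segments. Segments are incubated at 19° C and 75% RH in a climate cabinet; disease control relative to untreated is evaluated 6 to 8 days later.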

[3] = system: Phakopsora pachyrhizi; experiment: Phakopsora pachyrhizi / soybean / leaf disc preventative (Asian soybean rust); format: in vivo, Phakopsora pachyrhizi on soybean; conditions: foliar, 200 ppm in the applied formulation, inoculated one day after application, assessed 12 to 14 days after application, vs untreated control leaf disks, read-out: disease control
Outline: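 Read-out is percent disease control relative to untreated check discs, assessed once untreated discs show adequate disease, 12 to 14 days after application. Compounds, tested at 200 ppm in the applied formulation, are sprayed onto soybean leaf discs one day before inoculation with a spore suspension.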

[4] = system: Glomerella Lacenarium (Colletotrichum lacenarium); experiment: Glomerella lagenarium (Colletotrichum lagenarium) liquid culture / cucumber / preventative (anthracnose); format: cell-based; conditions: 20 ppm in the applied formulation, liquid culture in PDB, 24° C., inhibition of growth measured photometrically 3 to 4 days after application, vs untreated control, read-out: disease control
Outline: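 Spore-based broth assay: conidia mixed into PDB meet compound from a DMSO solution in 96-well format, incubate at 24° C., then inhibition of growth is determined by photometry 3–4 days later relative to the untreated check.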

[5] = system: Uromyces viciae-Fabael; experiment: Uromyces viciae-fabae / field bean / leaf disc preventative (faba-bean rust); format: in vivo, Uromyces viciae-fabae on field bean; conditions: foliar, 288 h, 100 ppm in the applied formulation, inoculated two hours after application, assessed 12 days after application, vs untreated control leaf discs, read-out: disease control
Experimental: Leaf disks or leaf segments of various plant species are cut from plants grown in a greenhouse. The cut leaf disks or segments are placed in multiwell plates (24-well format) onto water agar. The leaf disks are sprayed with a test solution before (preventative) or after (curative) inoculation. Compounds to be tested are prepared as DMSO solutions (max. 10 mg/ml) which are diluted to the appropriate concentration with 0.025% Tween20 just before spraying. The inoculated leaf disks or segments are incubated under defined conditions (temperature, relative humidity, light, etc.) according to the respective test system. A single evaluation of disease level is carried out 3 to 14 days after inoculation, depending on the pathosystem. Percent disease control relative to the untreated check leaf disks or segments is then calculated.
Field bean leaf discs are placed on water agar in multiwell plates (96-well format) and 10 μl of the formulated test compound diluted in acetone and a spreader pipetted onto the leaf disc. Two hours after application leaf discs are inoculated by spraying a spore suspension on the lower leaf surface. The leaf discs are incubated in a climate cabinet at 22° C. with 18 hour day and 70% relative humidity. The activity of a compound is assessed as percent disease control compared to untreated when an appropriate level of disease damage appears in untreated check leaf disks (12 days after application).
The following compounds at 100 ppm in the applied formulation give at least 80% disease control in this test when compared to untreated control leaf discs under the same conditions, which show extensive disease development.

| Structure (SMILES) | pest or weed control at 200 ppm [1] [%] | pest or weed control at 200 ppm [2] [%] | pest or weed control at 200 ppm [3] [%] | inhibition of growth at 20 ppm [4] [%] | pest or weed control at 100 ppm [5] [%] | melting point [°C] |
| --- | --- | --- | --- | --- | --- | --- |
| O=C(NCc1ccc(-c2noc(C(F)(F)F)n2)cc1)C1CC1 [Compound 1.1, N-[[4-[5-(trifluoromethyl)-1,2,4-oxadiazol-3-yl]phenyl]methyl] cyclopropanecarboxamide] | ≥ 80 | ≥ 80 | ≥ 80 | ≥ 80 | ≥ 80 | 183 to 190 |
| O=C(NCc1ccc(-c2noc(C(F)(F)F)n2)cc1)C1(F)CC1 [Compound 1.2, 1-fluoro-N-[[4-[5-(trifluoromethyl)-1,2,4-oxadiazol-3-yl]phenyl]methyl] cyclopropanecarboxamide] | ≥ 80 | ≥ 80 | ≥ 80 | ≥ 80 | ≥ 80 | 101 to 108 |
| O=C(NCc1ccc(-c2noc(C(F)(F)F)n2)cc1)c1ccccc1Cl [Compound 1.3, 2-chloro-N-[[4-[5-(trifluoromethyl)-1,2,4-oxadiazol-3-yl]phenyl]methyl]benzamide] | ≥ 80 | – | ≥ 80 | ≥ 80 | ≥ 80 | 136 to 142 |
| Cc1occc1C(=O)NCc1ccc(-c2noc(C(F)(F)F)n2)cc1 [Compound 1.4, 2-methyl-N-[[4-[5-(trifluoromethyl)-1,2,4-oxadiazol-3-yl]phenyl]methyl]furan-3-carboxamide] | ≥ 80 | ≥ 80 | ≥ 80 | ≥ 80 | ≥ 80 | 102 to 112 |
| O=C(NCc1ccc(-c2noc(C(F)(F)F)n2)cc1)C1CCCO1 (stereo not drawn) [Compound 1.5, N-[[4-[5-(trifluoromethyl)-1,2,4-oxadiazol-3-yl]phenyl]methyl] tetrahydrofuran-2-carboxamide] | ≥ 80 | ≥ 80 | ≥ 80 | ≥ 80 | ≥ 80 | 76 to 83 |
| O=C(NCc1ccc(-c2noc(C(F)(F)F)n2)c(F)c1F)C1CC1 [Compound 1.55, N-[[2,3-difluoro-4-[5-(trifluoromethyl)-1,2,4-oxadiazol-3-yl]phenyl]methyl] cyclopropanecarboxamide] | ≥ 80 | ≥ 80 | ≥ 80 | ≥ 80 | – | 144 to 150 |
| O=C(NCc1ccc(-c2noc(C(F)(F)F)n2)c(F)c1F)c1ccccc1Cl [Compound 1.56, 2-chloro-N-[[2,3-difluoro-4-[5-(trifluoromethyl)-1,2,4-oxadiazol-3-yl]phenyl]methyl] benzamide] | ≥ 80 | – | ≥ 80 | ≥ 80 | – | 144 to 150 |
| O=C(NCc1ccc(-c2noc(C(F)(F)F)n2)c(F)c1)C1CC1 [Compound 1.57, N-[[3-fluoro-4-[5-(trifluoromethyl)-1,2,4-oxadiazol-3-yl]phenyl]methyl] cyclopropanecarboxamide] | ≥ 80 | ≥ 80 | ≥ 80 | ≥ 80 | – | 139 to 140 |
| O=C(NCc1ccc(-c2noc(C(F)(F)F)n2)c(F)c1)c1ccccc1Cl [Compound 1.58, 2-chloro-N-[[3-fluoro-4-[5-(trifluoromethyl)-1,2,4-oxadiazol-3-yl]phenyl]methyl] benzamide] | ≥ 80 | – | ≥ 80 | ≥ 80 | – | 146 to 148 |
| O=C(NCc1ccc(-c2noc(C(F)(F)F)n2)c(F)c1)C1CCCO1 (stereo not drawn) [Compound 1.59, N-[[3-fluoro-4-[5-(trifluoromethyl)-1,2,4-oxadiazol-3-yl]phenyl]methyl] tetrahydrofuran-2-carboxamide] | ≥ 80 | ≥ 80 | ≥ 80 | ≥ 80 | – | 56 to 58 |
| CC1=NOC(C(=O)NCc2ccc(-c3noc(C(F)(F)F)n3)c(F)c2)C1 (stereo not drawn) [Compound 1.60, N-[[3-fluoro-4-[5-(trifluoromethyl)-1,2,4-oxadiazol-3-yl]phenyl]methyl]-3-methyl-4,5-dihydroisoxazole-5-carboxamide] | ≥ 80 | ≥ 80 | ≥ 80 | ≥ 80 | – | 134 to 138 |
| O=C(NCc1ccc(-c2noc(C(F)(F)F)n2)c(F)c1F)C1CCCO1 (stereo not drawn) [Compound 1.80, N-[[2,3-difluoro-4-[5-(trifluoromethyl)-1,2,4-oxadiazol-3-yl]phenyl]methyl] tetrahydrofuran-2-carboxamide] | ≥ 80 | ≥ 80 | ≥ 80 | ≥ 80 | – | 80 to 86 |
| O=C(NCCc1ccc(-c2noc(C(F)(F)F)n2)cc1)C1CC1 [Compound 1.96, N-[2-[4-[5-(trifluoromethyl)-1,2,4-oxadiazol-3-yl]phenyl]ethyl] cyclopropanecarboxamide] | ≥ 80 | ≥ 80 | ≥ 80 | ≥ 80 | – | 150 to 151.1 |
| O=C(NCCc1ccc(-c2noc(C(F)(F)F)n2)cc1)C1CCCO1 (stereo not drawn) [Compound 1.97, N-[2-[4-[5-(trifluoromethyl)-1,2,4-oxadiazol-3-yl]phenyl]ethyl] tetrahydrofuran-2-carboxamide] | ≥ 80 | ≥ 80 | ≥ 80 | ≥ 80 | – | 68.7 to 70.5 |
